Results from patent US20040175763A1, “Crohn's disease antibody-binding peptide and method of examining crohn's disease” (priority 2001, published 2004).
No end group written: not given here.

Tests used:
[1] = system: Crohn's disease antibody (serum antibodies); assay: MAP antigen-ELISA of Z300 peptide (Example 6(4)); format: binding, human; conditions: 20 ulcerative colitis, 20 healthy volunteer serum samples
Protocol: Therefore, in order to confirm that human nuclear protein (HZF300) is a protein simulated or mimicked by CDP3 peptide, the peptide (Z300 peptide) having the amino acid sequence of the 126-138 amino acid region of HZF300 was prepared in the form of a MAP peptide and the MAP antigen ELISA was carried out using 20 Crohn's disease patient serum samples, 20 ulcerative colitis patient serum samples, and 20 healthy volunteer serum samples.
First, each human serum was diluted 101-fold with the sample diluent (described hereinbefore) and 100 μL/well of the solution was added to the MAP plate prepared by immobilizing the said MAP peptide. Then, the procedure of the secondary reaction and subsequent operation described in Example 6(2) was followed to investigate the reactivity of the MAP peptide to various kinds of serum antibodies.

[2] = system: Crohn's disease antibody; assay: Test for inhibition of the antigen-antibody reaction between CDP3 peptide and Crohn's disease antibody using Z300 peptide (Example 6(5)); format: binding, human; conditions: sera No. 2, No. 7, No. 8; inhibitor 100 μg/ml
Protocol: To verify the reactivity of Z300 peptide to Crohn's disease antibodies, a test for inhibition of the antigen-antibody reaction between CDP3 peptide and Crohn's disease antibody was performed using Z300 peptide.
More particularly, the MAP plate prepared by immobilizing the MAP peptide of CDP3 on a plate (Example 2(1)) was used. To 100 μL of the sample diluent containing 100 μg/ml of Z300 MAP peptide (reaction inhibitor) was added 1 μL of the serum sample and the reaction was carried out at 25° C. for one hour. The whole amount of this reaction mixture was added to the plate and ELISA was performed in the same manner as in Example 6(2). As a comparative experiment, ELISA was similarly performed using the MAP peptide of CDP3, in lieu of the MAP peptide of Z300, as said reaction inhibitor.

[3] = system: Crohn's disease antibody (serum IgG); assay: MAP peptide ELISA of CDP-1a, CDP-5a and VATE-201 (Example 4); format: binding, human; conditions: 20 Crohn's disease, 20 ulcerative colitis, 20 healthy volunteer serum samples
From the text: Therefore, the following peptides (CDP-1a peptide, CDP-5a peptide, VATE-201 peptide) were respectively synthesized in the MAP form (multiple antigenic peptides) by the same procedure as described in Example 1(3) (FIG. 9), and in accordance with the protocol of Example 2(1), the reactivity of each MAP peptide to various serum samples (Crohn's disease patient sera, ulcerative colitis patient sera and healthy volunteer sera) was investigated by ELISA.
As test sera, 20 Crohn's disease patient serum samples were used and, as control sera, 20 ulcerative colitis serum samples and 20 healthy volunteer serum samples were used.

[4] = system: Crohn's disease antibody; assay: Test for inhibition of the antigen-antibody reaction between CDP-1a peptide and Crohn's disease antibody (Example 5); format: binding, human; conditions: sera No. 8, No. 9, No. 14; reaction inhibitor 100 μg/ml
Protocol: To confirm the reactivity of VATE-201 obtained in Example 4, a test for inhibition of the antigen-antibody reaction between CDP-1a peptide and Crohn's disease antibody was carried out using VATE-201 peptide.
More particularly, the MAP plate prepared by immobilizing CDP-1a MAP peptide was used as the antigen plate (see Example 2(1)). On the other hand, 1 μL of each serum sample was added to 100 μL of a casein solution ((D)-PBS containing 0.1% casein and 1% Triton X-100) containing the MAP peptide of VATE-201 (reaction inhibitor) at a concentration of 100 μg/ml and the reaction was carried out at 37° C. for one hour. The whole amount of the reaction mixture thus obtained was added to the above MAP plate and ELISA was performed in the same manner as in Example 2(1). As a comparative experiment, using the MAP peptide of CDP-1a in lieu of the MAP peptide of VATE-201 as said reaction inhibitor, ELISA was carried out in otherwise the same manner.

[5] = system: Crohn's disease antibody (serum antibodies); assay: MAP antigen-ELISA of TO3965 peptide (Example 7(4)); format: binding, human; conditions: 20 ulcerative colitis, 20 healthy volunteer serum samples
Protocol: At this junction, in order to endorse the assumption that rice allergen proteins are proteins simulated or mimicked by CDP4 peptide, a peptide (TO3965 peptide) having an amino acid sequence corresponding to the 99-111 amino acid region of Rice seed allergen RA14 (FIG. 16) was prepared in the form of a MAP peptide and the MAP antigen-ELISA was performed using 20 Crohn's disease patient serum samples, 20 ulcerative colitis patient serum samples, and 20 healthy volunteer serum samples.
Except that a MAP antigen plate prepared by immobilizing the MAP peptide of TO3965 on the plate was used as the antigen plate, the MAP antigen-ELISA was carried out in otherwise the same manner as in Example 6(4).

[6] = system: Crohn's disease antibody; assay: Test for inhibition of the antigen-antibody reaction between CDP4 peptide and Crohn's disease antibody using TO3965 peptide (Example 7(5)); format: binding, human; conditions: sera Nos. 3, 6, 15, 17 and 20
Protocol: To confirm the reactivity of TO3965 peptide to Crohn's disease antibody, a test for inhibition of the antigen-antibody reaction between CDP4 peptide and Crohn's disease antibody was performed using TO3965 peptide as a reaction inhibitor as in Example 6(5).

[7] = molecular target: Crohn's disease patient serum No. 2 (serum antibody); assay: inhibition ELISA; serum pre-incubated with 100 ug/mL MAP peptide, then CDP3 MAP plate; grade of reaction-inhibiting activity
[8] = molecular target: Crohn's disease patient serum No. 8 (serum antibody); assay: as above

Z300: peptide having the amino acid sequence of the 126-138 amino acid region of HZF300, SEQ ID NO:31 (LVCQGDGQLQRFL; Kruppel-like Zinc Finger Protein 300; listed as Homo sapiens)
reactions with ulcerative colitis patient sera and healthy volunteer sera [1]: did not show definite reactions | inhibition of the reactivity of Crohn's disease patient sera to the CDP3 MAP plate [2]: inhibited the reactivity of all Crohn's disease patient sera

RLDLIAQQMMPEVR [VATE-201]
ELISA reactivity to serum samples [3]: ELISA reactivities mutually alike | inhibition of the reactivity of Crohn's disease serum samples with the CDP-1a MAP plate [4]: invariably inhibited the reactivity

TO3965: peptide with the amino acid sequence of the 99-111 amino acid region of Rice seed allergen RA14, SEQ ID NO:42 (HMVGGIYRELGAT; Rice; Rice Seel Allergen RA14)
reactions with ulcerative colitis patient sera and healthy volunteer sera [5]: did not show definite reactions | inhibition of the reactivity of Crohn's disease patient serum samples to the CDP4 MAP plate [6]: inhibition everything of the reactivity

B1: MAP peptide of CDP3-13 (peptide)
peptide: AEGELRQSDGQYAM
modifications: also: MAP: 8 copies as branches on a lysine core
reaction-inhibiting activity [7]: 30 to 50% | reaction-inhibiting activity [8]: 50 to 70%
